For data set [1] the following is noted: water and alcohol; from Mashkovskiy, Medications; cited from earlier work.
In data set [2] the test system is cancer cells PC-3 (prostate carcinoma). As to the kind of experiment: Mitochondria membranes of PC-3 cancer cells after incubation with preparation. The data set is classed as cell-based. As to conditions: PC-3 cells, diluted to 10^−5 mmol/l, 72 hours at 37° C. How it is done: A control group was also formed consisting of the same number of vials with the same components except cancer cells, and instead, fibroblasts were put in the group vials. After thermostatting for 72 hours at 37° C. the contents of the above vials was analyzed.

Molecules are shown by their SMILES.

We go through two compounds from patent publication US8436195B2 (priority 2006, dated 2013).

Regarding `O=c1[nH]cc(F)c(=O)[nH]1` [fluororacil], in data set [1], the solubility entry is “poorly soluble in water and alcohol”. Turning to `COc1cccc2c1C(=O)c1c(O)c3c(c(O)c1C2=O)C[C@@](O)(C(=O)CO)C[C@@H]3O[C@H]1C[C@H](N)[C@H](O)[C@H](C)O1` [adriamycin], the “state of mitochondria membranes” value in data set [2] was “membrane swelling”.
